Entries after “also recorded” stand apart in the source; their conditions may differ. Read-outs that look alike come from different tables or passages of the source.
Columns and labels:
[1] = tested on: translation readthrough of PTC in exon 12 of BMPR2; assay type: cell-based; settings: for population of dual-fluorescence cells (FACS): 293 cells transfected with pTN142; for ratio of DsRed-Express and GFP production (efficiency of readthrough), plate readers: fluorescence monochrome and filter plate readers, data not shown
Description: (§1) (A) An outline of the single cell-based translation readthrough assay. The principle of the reporter system is similar to that mentioned in FIG. 2 with the exception that it contains a translation termination signal in the exon 12. In the event of translation termination at the internal PTC, a DsRed-Express protein will be generated whilst readthrough will produce a fusion dual-fluorescence protein (DsRed Express and GFP). Thus the ratio of two fluorescence intensities determines the efficiency of readthrough. […] (C) Cell expressing fluorescence proteins were analyzed with FACS. Cell transfected with pTN139 generated the highest population of dual-fluorescence cells (FIG. 5Civ), whilst pTN142 produced no or few dual-fluorescence cells. […] GFP (FIG. 5Cii) and DsRed-Express (FIG. 5Ciii) proteins expressing cells were used as fluorescence positive control, whilst untransfected cells (FIG. 5Ci) were used as negative control. (FIG. 5D) The outline of the enzymatic reporter was published elsewhere (Kollmus et al., 1996, Nasim et al., 2000). In brief, translation termination in the internal stop signal generates β-gal protein. In the event of readthrough, a β-gal-luciferase fusion protein will be produced. The ratio of these two proteins was used as the efficiency of readthrough event. For this purpose, two independent constructs were used in our experiment. Construct H8 (pBPLUGA; Kollmus et al., 1996) contains a 17 bp DNA fragment containing an in-frame stop signal. H8A construct (Nasim et al., 2000) is similar to H8 with the exception that it contains a 91 bp DNA fragment.
Single-cell based dual-fluorescence splicing assay constructs were generated by replacing exon 9 of plasmid pTN136 with exon 12 of BMPR2 gene using PCR mutagenesis (14). The resultant splicing unit was cloned into Xho I and Bam HI sites of DsRed Express-GFP vector (Siskoglu and Nasim, unpublished data) and designated as pTN139. Further plasmids pTN140, pTN141, pTN142 and pTN143 bearing mutations in exon 12 at position c.2292insA, c.2386delG, c.2620G>T and c.2695C>T, respectively were generated. A double intron splicing unit was constructed by fusing an additional splicing unit of HC9 (15) at the 3′end of the Ad-Exon 12 unit of pTN136. The splicing unit of HC9 comprises the last 17 nucleotides of the non-muscle exon (NM) of human TPM3 gene together with the following 80-nucleotide intron, which was joined to a fragment of human dystrophin gene containing the last 260 nucleotides of intron 11 followed by the 100 nucleotides of exon 12. The double-intron splicing unit was cloned into EcoRI and KpnI sites of DsRed-Express-GFP vector and designated as pTN153. Plasmid pTN155 is a derivative of pTN153 and harbours a mutation in exon 12 at position c.2386delG.
Gene Transfer, cell culture, enzymatic assay, fluorescence microscopy and fluorescence activated cell sorting (FACS) were carried as described elsewhere (11), (15), (17). Amount of plasmid DNA transfected into HEK293 cell line varied from (from 30 ng to 1 μg) assay to assay.
In addition to PAH, there are also more than 1800 genetic disorders caused by nonsense mutation. Two approaches are currently available to overcome nonsense-associated genetic diseases. […] The aim of other approach is to suppress pre-mature termination; in other words to promote translation readthrough. As the dual-fluorescence assay was successfully utilized to characterize the PTC, we next wished to investigate whether the system can be used to identify factors that promote translation readthrough. To achieve this, we introduced a nonsense mutation into the exon 12 of the BMPR2 gene in such a way that it incorporates a PTC (FIG. 5A). In the event of readthrough, a fusion dual-fluorescence protein (DsRed Express and GFP) will be produced, whilst translation termination generates only DsRed-Express protein. Thus the ratio of two fluorescence intensities determines the efficiency of readthrough. […]

[2] = tested on: translation readthrough of in-frame stop signal; assay: enzyme-based dual-reporter (β-gal-luciferase) readthrough assay, constructs H8 and H8A; assay type: cell-based
Description: as §1, with “(FIG. 5D) The outline of the enzymatic reporter was published elsewhere (Kollmus et al., 1996, Nasim et al., 2000). In brief, translation termination in the internal stop signal generates β-gal protein.” left out, “For this purpose, two independent constructs were used in our experiment. Construct H8 (pBPLUGA; Kollmus et al., 1996) contains a 17 bp DNA fragment containing an in-frame stop signal. H8A construct (Nasim et al., 2000) is similar to H8 with the exception that it contains a 91 bp DNA fragment.” left out
To further validate the efficiency determined by fluorescence assays, we employed an enzyme-based reporter assay. […] In the event of translation termination, β-gal protein is generated, whilst readthrough produces a β-gal and luciferase fusion protein. […]

[3] = tested on: nonsense mediated RNA decay; assay: β-galactosidase reporter based NMD assay (gal-luc ratio) with PTC bearing double intron splicing unit; assay type: cell-based; settings: reporter with c.2386delG or c.2292insA PTC, after treatment with translation/NMD inhibitor
Description: (A) The test system for determining nonsense mediated RNA decay in mammalian cells based on the reporter gene encoding β-galactosidase, which was fused in-frame with the PTC (c.2386delG, c.2292insA) bearing recombinant double intron splicing unit (FIG. 4A). Plasmids bearing c.2292insA (pTN147) and c.2386delG (pTN148) mutations were transfected into HE 293 cells and grown in the presence or absence of NMD inhibitors including puromycin and cycloheximide. The treatments increased the gal-luc ratio of the reporter constructs between 5 and 20 fold (FIG. 4B) compared with untreated control. Compared with cells transfected with the reporter alone, the gal-luc ratio increased between 3 and 6 fold when hUpf1 RNA was knock down by RNAi (FIG. 4C).
Constructs for determining NMD were generated by fusing the double-intron splicing unit of pTN155 at the end of β-galactosidase reporter gene. The double-intron splicing intron was cloned in two steps into pBPLUGA (16). First the splicing unit of HC9 as described above was PCR amplified and cloned into KpnI and BamHI sites of pBPLUGA. The splicing unit of pTN136 was then cloned into SalI/XhoI and BamHI sites of the newly constructed plasmid and designated as pTN148. […]
Gene Transfer, cell culture, enzymatic assay, fluorescence microscopy and fluorescence activated cell sorting (FACS) were carried as described elsewhere (11), (15), (17). […]

[4] = tested on: nonsense codon read-through; settings: literature values; cited from earlier work
[5] = tested on: translation readthrough of in-frame PTC; assay: swapped GFP-DsRedExpress dual-fluorescence readthrough assay, plate reader; assay type: cell-based; settings: HEK293 cells, medium with 0.1% fetal bovine serum, 3-5 days, BMG Labtech plate reader
Description: An outline of the dual-fluorescence reporter. The underlying principle of the reporter is similar to that mentioned above with the exception that the DsRed-express gene is located downstream of the GFP reporter (FIG. 7A). Following transfection the reporter harbouring an in-frame PTC produced only GFP protein (FIG. 7B). The reporter produced both GFP and DsRedExpress proteins following the exchange of the PTC to a sense codon.
A step-by-step outline of the translation readthrough assay (FIG. 8A).
A potential complication of the fluorescence approach was that of an autofluorescence which might interfere with the GFP fluorescence. To address this potential limitation, another set of vector was constructed. In this set of vectors the GFP and DsRed-Express reporters were swapped in such that the GFP is expressed regardless of translation readthrough, whilst the readthrough activates the expression of DsRed-Express protein (FIG. 7A). […] The reporter produced both GFP and DsRed-Express dual-fluorescences once the PTC codon was changed to a sense codon.
We next wished to determine the ratio of DsRed-Express and GFP production, which represents the efficiency of readthrough (FIG. 8A). […] The growth medium was discarded, cells were washed with PBS and the fluorescence intensities were determined using a fluorescence (BMG Labtech) plate reader.

CN[C@@H]1[C@@H](O)[C@@H](O[C@@H]2[C@@H](O)[C@H](O[C@H]3O[C@H]([C@@H](C)O)[C@@H](O)[C@H](O)[C@H]3N)[C@@H](N)C[C@H]2N)OC[C@]1(C)O [G418 sulphate]
population of dual-fluorescence cells (FACS) [1]: markedly increased | population of dual-fluorescence cells (FACS) ([1]; listed as G418): significantly high population of dual-fluorescence cells | dual-fluorescence of cells ([1]; 293 cells, PTC construct, 5 days after treatment): generated dual-fluorescence | ratio of DsRed-Express and GFP production (efficiency of readthrough), plate readers [1]: promoted translation readthrough | ratio of gal-luc activity (readthrough efficiency) [2]: promoted readthrough efficiency; also recorded: markedly increased

C[C@@H]1C[C@@H]([C@H](O)CC2CC(=O)NC(=O)C2)C(=O)[C@@H](C)C1 [cycloheximide]
increase in the reporter protein [3]: 5 fold

O=C(O)c1cccc(-c2noc(-c3ccccc3F)n2)c1 [PTC124]
read-through efficiencies [4]: 2-10%

gentamicin
population of dual-fluorescence cells (FACS) [1]: significantly high population of dual-fluorescence cells; also recorded: markedly increased | ratio of DsRed-Express and GFP production (efficiency of readthrough), plate readers [1]: promoted translation readthrough | ratio of gal-luc activity (readthrough efficiency) [2]: promoted readthrough efficiency | ratio of GFP and DsRedExpress fluorescence intensities (efficiency of readthrough) [5]: promoted the ratio of GFP and DsRedExpress fluorescence intensities; also recorded: promoted translation readthrough

COc1ccc(C[C@H](N)C(=O)N[C@H]2[C@@H](O)[C@H](n3cnc4c(N(C)C)ncnc43)O[C@@H]2CO)cc1 [puromycin]
increase in the reporter protein [3]: 20 fold
